In BindingDB's records for doi:10.1021/jm040160b (Research Triangle Institute, 2005):

Target: Neuronal acetylcholine receptor subunit alpha-4/beta-2 (Rattus norvegicus, UniProt P09483+P12390)
Test: Inhibition of [3H]epibatidine binding to Nicotinic acetylcholine receptor alpha4-beta2 in rat cerebral cortex

Chain of Neuronal acetylcholine receptor subunit alpha-4/beta-2 (P09483 whole entry): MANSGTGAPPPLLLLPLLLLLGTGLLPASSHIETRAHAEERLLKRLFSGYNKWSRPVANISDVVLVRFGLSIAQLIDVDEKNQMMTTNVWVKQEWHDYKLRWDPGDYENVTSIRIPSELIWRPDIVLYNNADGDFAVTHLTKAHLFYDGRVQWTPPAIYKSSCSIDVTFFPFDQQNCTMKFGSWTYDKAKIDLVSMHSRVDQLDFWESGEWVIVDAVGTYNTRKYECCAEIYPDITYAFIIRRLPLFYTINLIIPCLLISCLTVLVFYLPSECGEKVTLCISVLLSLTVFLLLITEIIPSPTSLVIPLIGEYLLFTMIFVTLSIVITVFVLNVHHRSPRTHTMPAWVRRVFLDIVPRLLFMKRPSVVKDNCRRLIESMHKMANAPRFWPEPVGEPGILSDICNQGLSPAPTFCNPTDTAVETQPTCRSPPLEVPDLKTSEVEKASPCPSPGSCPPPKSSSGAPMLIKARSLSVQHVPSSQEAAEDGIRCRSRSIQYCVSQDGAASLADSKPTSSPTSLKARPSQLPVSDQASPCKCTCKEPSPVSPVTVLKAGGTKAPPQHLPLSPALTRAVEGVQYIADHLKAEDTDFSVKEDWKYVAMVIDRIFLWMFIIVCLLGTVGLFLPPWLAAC
Chain of Neuronal acetylcholine receptor subunit alpha-4/beta-2 (P12390 whole entry): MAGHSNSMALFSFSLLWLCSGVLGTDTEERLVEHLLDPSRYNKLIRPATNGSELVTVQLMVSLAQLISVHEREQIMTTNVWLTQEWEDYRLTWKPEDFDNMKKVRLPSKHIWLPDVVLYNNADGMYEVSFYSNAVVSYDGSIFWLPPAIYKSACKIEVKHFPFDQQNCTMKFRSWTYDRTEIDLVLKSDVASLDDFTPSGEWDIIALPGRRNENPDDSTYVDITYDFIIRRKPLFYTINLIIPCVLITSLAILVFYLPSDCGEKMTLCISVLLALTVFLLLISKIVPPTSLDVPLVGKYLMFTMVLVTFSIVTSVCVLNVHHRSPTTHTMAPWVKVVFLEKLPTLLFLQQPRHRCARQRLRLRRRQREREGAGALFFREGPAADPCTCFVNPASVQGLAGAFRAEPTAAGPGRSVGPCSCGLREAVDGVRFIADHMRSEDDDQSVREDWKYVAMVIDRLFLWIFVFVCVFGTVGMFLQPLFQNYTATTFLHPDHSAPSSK

## Clc1cncc(C2CC3CCC2N3)c1 (stereo unspecified) [2-(5-Chloro-pyridin-3-yl)-7-aza-bicyclo[2.2.1]heptane]
  Ki: 0.06 nM
